Measurements taken from patent US8758779B2, “Pharmaceutical composition of duloxetine” (Wockhardt Ltd., priority 2009, dated 2014).

Experiments:
[1] = Solubility studies (turbidity or clarity of the resultant solution); assay type: physicochemical; conditions: duloxetine present along with one or more cyclodextrin or derivatives, as physical admixture or complex
Protocol: Weighed amount of duloxetine hydrochloride was dispersed in required quantity of water at room temperature. To the above dispersion sodium bicarbonate, propylene glycol, sodium lauryl sulphate or Hydroxypropyl Beta-cyclodextrin was added in requisite amount as specified in Table 5.

[2] = water; cited from earlier work
[3] = acidic environment of gastrointestinal tract; cited from earlier work

## CNCC[C@H](Oc1cccc2ccccc12)c1cccs1 [Duloxetine]
[1]
  Solubility of duloxetine in presence of cyclodextrin: significant increase in solubility
[2]
  Aqueous solubility: slightly soluble in water
[3]
  Acid stability: acid labile
